Data from the NIST ThermoML archive (doi:10.1016/j.jct.2015.07.006).
Values joined by “and” are separate entries in the source; they are usually repeats but may differ in a detail not shown here. Equal values may be shown once. ± gives the expanded uncertainty stated by the source.

Assay: mn = molality of the nth substance listed, in mol/kg
Details: 298.15 K, 100 kPa, Liquid, Vibrating tube method

[O]=[Tc](=[O])(=[O])[OH] [pertechnetic acid] + O
mass density (m1 = 0.000983): 996.83 ± 2 kg/m3 | mass density (m1 = 0.00102): 996.91 ± 2 kg/m3 | mass density (m1 = 0.00113): 996.91 ± 2 kg/m3 and 996.92 ± 2 kg/m3 | mass density (m1 = 0.00124): 996.91 ± 2 kg/m3 | mass density (m1 = 0.00159): 996.95 ± 2 kg/m3 | mass density (m1 = 0.1): 1008.7 ± 2 kg/m3 | mass density (m1 = 0.103): 1008.77 ± 2 kg/m3 | mass density (m1 = 0.114): 1009.95 ± 2 kg/m3 | mass density (m1 = 0.115): 1010.3 ± 2 kg/m3 | mass density (m1 = 0.127): 1011.76 ± 2 kg/m3 | mass density (m1 = 0.163): 1016.23 ± 2 kg/m3 | mass density (m1 = 0.888): 1097.53 ± 2.2 kg/m3 | mass density (m1 = 0.98): 1107.47 ± 2.2 kg/m3 | mass density (m1 = 1.007): 1117.47 ± 2.3 kg/m3 | mass density (m1 = 1.096): 1127.7 ± 2.3 kg/m3 | mass density (m1 = 1.182): 1137.34 ± 2.3 kg/m3 | mass density (m1 = 1.265): 1146.5 ± 2.3 kg/m3 | mass density (m1 = 1.347): 1155.88 ± 2.3 kg/m3 | mass density (m1 = 1.398): 1164.11 ± 2.4 kg/m3 | mass density (m1 = 1.535): 1178.55 ± 2.4 kg/m3 | mass density (m1 = 1.696): 1195.28 ± 2.4 kg/m3 | mass density (m1 = 2.034): 1225.06 ± 2.5 kg/m3 | mass density (m1 = 2.106): 1235.3 ± 2.5 kg/m3 | mass density (m1 = 2.211): 1243.09 ± 2.5 kg/m3 | mass density (m1 = 2.45): 1263.95 ± 2.6 kg/m3 | mass density (m1 = 2.555): 1272.74 ± 2.6 kg/m3 | mass density (m1 = 2.667): 1283.23 ± 2.6 kg/m3 | mass density (m1 = 2.783): 1293.03 ± 2.6 kg/m3 | mass density (m1 = 2.908): 1303.34 ± 2.7 kg/m3 | mass density (m1 = 3.042): 1314.68 ± 2.7 kg/m3 | mass density (m1 = 3.33): 1335.81 ± 2.7 kg/m3 | mass density (m1 = 3.49): 1348.06 ± 2.8 kg/m3 | mass density (m1 = 3.693): 1374.94 ± 2.8 kg/m3 | mass density (m1 = 3.884): 1389.83 ± 2.9 kg/m3 | mass density (m1 = 4.038): 1399.11 ± 2.9 kg/m3 | mass density (m1 = 4.46): 1434.87 ± 2.9 kg/m3 | mass density (m1 = 4.661): 1446.75 ± 3 kg/m3 | mass density (m1 = 4.851): 1460.83 ± 3 kg/m3 | mass density (m1 = 5.049): 1475.34 ± 3 kg/m3 | mass density (m1 = 5.257): 1490.81 ± 3.1 kg/m3 | mass density (m1 = 5.485): 1507.23 ± 3.1 kg/m3 | mass density (m1 = 5.722): 1523.34 ± 3.1 kg/m3 | mass density (m1 = 6.254): 1556.61 ± 3.2 kg/m3 | mass density (m1 = 6.537): 1574.08 ± 3.3 kg/m3 | mass density (m1 = 6.849): 1593.38 ± 3.3 kg/m3 | mass density (m1 = 7.187): 1612.75 ± 3.3 kg/m3 | mass density (m1 = 7.54): 1634.13 ± 3.4 kg/m3 | mass density (m1 = 7.918): 1657.06 ± 3.4 kg/m3 | mass density (m1 = 8.323): 1679.31 ± 3.5 kg/m3
